# Test results reported in patent publication US20130216666A1, “CASHEW NUT SHELL LIQUID WITH IMPROVED STABILITY” (IDEMITSU KOSAN CO., LTD., priority 2010, published 2013).
# Where two headings read alike, the source gives them in different places.
# Tests used:
# [1] = Inhibition of decarboxylation reaction in unheated cashew nut shell liquid formulation (silica), phosphoric acid / phosphate; assay type: physicochemical; conditions: 80° C.; for Anacardic Acid 15:1 Composition (%) / Anacardic Acid 15:1 concentration / Anacardic Acid 15:2 Composition (%) / Anacardic Acid 15:2 concentration / Anacardic Acid 15:3 Composition (%) / Anacardic Acid 15:3 concentration / Cardanol 15:1 Composition (%) / Cardanol 15:1 concentration / Cardanol 15:2 Composition (%) / Cardanol 15:2 concentration / Cardanol 15:3 Composition (%) / Cardanol 15:3 concentration: 10% by weight in unheated CNSL, mixed with silica
# Method: 10 g of silica (Sipernat 22) was placed into each of beakers. […] The sodium dihydrogen phosphate was added as an aqueous solution.
# [2] = 80° C.; for Anacardic Acid 15:1 Composition (%) / Anacardic Acid 15:1 concentration / Anacardic Acid 15:2 Composition (%) / Anacardic Acid 15:2 concentration / Anacardic Acid 15:3 Composition (%) / Anacardic Acid 15:3 concentration / Cardanol 15:1 concentration / Cardanol 15:2 Composition (%) / Cardanol 15:2 concentration / Cardanol 15:3 Composition (%) / Cardanol 15:3 concentration: 10% by weight in unheated CNSL
# [3] = Inhibition of decarboxylation reaction in feed; conditions: 10% by weight in unheated CNSL, 80° C.; for Anacardic Acid 15:1 Composition (%) / Anacardic Acid 15:1 concentration / Anacardic Acid 15:2 Composition (%) / Anacardic Acid 15:2 concentration / Anacardic Acid 15:3 Composition (%) / Anacardic Acid 15:3 concentration / Cardanol 15:1 Composition (%) / Cardanol 15:1 concentration / Cardanol 15:2 Composition (%) / Cardanol 15:2 concentration / Cardanol 15:3 Composition (%) / Cardanol 15:3 concentration: silica composition 1% by weight in feed;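 further: ethyl acetate extract of test feed analysed by reversed-phase C18 HPLC with absorbance detection at 280 nm, giving component composition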
# Method: The analysis was carried out under the conditions of a solvent composition of acetonitrile: water: acetic acid =80:20:1 (based on volume), a flow rate of 2 ml/min, a temperature of 25° C., and an absorbance of 280 nm.
# Samples were taken from the beakers after 3 days and analyzed for composition by HPLC.
# For HPLC analysis, soluble fractions of the test feed was extracted with ethyl acetate and then filtered and dried to concentrate it to 5 mg/ml.
compound,measurement,setting,value
"O=P(O)(O)O [Phosphoric Acid, phosphoric acid]",Anacardic Acid 15:1 Composition (%),[1]; Day 0,40.20%
same,Anacardic Acid 15:1 concentration,[1]; Day 0,563.78 ppm
same,Anacardic Acid 15:2 Composition (%),[1]; Day 0,14.00%
same,Anacardic Acid 15:2 concentration,[1]; Day 0,196.40 ppm
same,Anacardic Acid 15:3 Composition (%),[1]; Day 0,32.21%
same,Anacardic Acid 15:3 concentration,[1]; Day 0,451.72 ppm
same,Cardanol 15:1 Composition (%),[1]; Day 0,5.74%
same,Cardanol 15:1 concentration,[1]; Day 0,80.56 ppm
same,Cardanol 15:2 Composition (%),[1]; Day 0,2.45%
same,Cardanol 15:2 concentration,[1]; Day 0,34.39 ppm
same,Cardanol 15:3 Composition (%),[1]; Day 0,5.39%
same,Cardanol 15:3 concentration,[1]; Day 0,75.66 ppm
same,Anacardic Acid 15:1 Composition (%),[1]; Day 3,38.30%
same,Anacardic Acid 15:1 concentration,[1]; Day 3,496.13 ppm
same,Anacardic Acid 15:2 Composition (%),[1]; Day 3,13.34%
same,Anacardic Acid 15:2 concentration,[1]; Day 3,172.83 ppm
same,Anacardic Acid 15:3 Composition (%),[1]; Day 3,30.69%
same,Anacardic Acid 15:3 concentration,[1]; Day 3,397.52 ppm
same,Cardanol 15:1 Composition (%),[1]; Day 3,7.46%
same,Cardanol 15:1 concentration,[1]; Day 3,96.68 ppm
same,Cardanol 15:2 Composition (%),[1]; Day 3,3.19%
same,Cardanol 15:2 concentration,[1]; Day 3,41.27 ppm
same,Cardanol 15:3 Composition (%),[1]; Day 3,7.01%
same,Cardanol 15:3 concentration,[1]; Day 3,90.79 ppm
same,inhibition of the decarboxylation,"[1]; formulation with silica, 10% by weight, 3 days",significant inhibition
same,Anacardic Acid 15:1 Composition (%),[2]; Day 0,32.73%
same,Anacardic Acid 15:1 concentration,[2]; Day 0,978 ppm
same,Anacardic Acid 15:2 Composition (%),[2]; Day 0,18.69%
same,Anacardic Acid 15:2 concentration,[2]; Day 0,559 ppm
same,Anacardic Acid 15:3 Composition (%),[2]; Day 0,42.99%
same,Anacardic Acid 15:3 concentration,[2]; Day 0,1285 ppm
same,Cardanol 15:1 concentration,[2]; Day 0,46 ppm
same,Cardanol 15:2 Composition (%),[2]; Day 0,1.26%
same,Cardanol 15:2 concentration,[2]; Day 0,38 ppm
same,Cardanol 15:3 Composition (%),[2]; Day 0,2.78%
same,Cardanol 15:3 concentration,[2]; Day 0,83 ppm
same,Anacardic Acid 15:1 Composition (%),[2]; Day 3,32.55%
same,Anacardic Acid 15:1 concentration,[2]; Day 3,968 ppm
same,Anacardic Acid 15:2 Composition (%),[2]; Day 3,18.61%
same,Anacardic Acid 15:2 concentration,[2]; Day 3,554 ppm
same,Anacardic Acid 15:3 Composition (%),[2]; Day 3,42.80%
same,Anacardic Acid 15:3 concentration,[2]; Day 3,1273 ppm
same,Cardanol 15:1 concentration,[2]; Day 3,46 ppm
same,Cardanol 15:2 Composition (%),[2]; Day 3,1.41%
same,Cardanol 15:2 concentration,[2]; Day 3,42 ppm
same,Cardanol 15:3 Composition (%),[2]; Day 3,3.10%
same,Cardanol 15:3 concentration,[2]; Day 3,92 ppm
same,inhibition of the decarboxylation,"[2]; 10% by weight, three days",significant inhibition
same,stability of the shell liquid in the feed (progress of the decarboxylation),"[3]; in feed, 3 days",stable in the feed without progress of the decarboxylation
same,Anacardic Acid 15:1 Composition (%),[3]; Day 0,40.28%
same,Anacardic Acid 15:1 concentration,[3]; Day 0,363.92 ppm
same,Anacardic Acid 15:2 Composition (%),[3]; Day 0,13.76%
same,Anacardic Acid 15:2 concentration,[3]; Day 0,124.28 ppm
same,Anacardic Acid 15:3 Composition (%),[3]; Day 0,33.11%
same,Anacardic Acid 15:3 concentration,[3]; Day 0,299.13 ppm
same,Cardanol 15:1 Composition (%),[3]; Day 0,5.39%
same,Cardanol 15:1 concentration,[3]; Day 0,48.69 ppm
same,Cardanol 15:2 Composition (%),[3]; Day 0,2.31%
same,Cardanol 15:2 concentration,[3]; Day 0,20.83 ppm
same,Cardanol 15:3 Composition (%),[3]; Day 0,5.15%
same,Cardanol 15:3 concentration,[3]; Day 0,46.52 ppm
same,Anacardic Acid 15:1 Composition (%),[3]; Day 3,39.75%
same,Anacardic Acid 15:1 concentration,[3]; Day 3,345.72 ppm
same,Anacardic Acid 15:2 Composition (%),[3]; Day 3,13.57%
same,Anacardic Acid 15:2 concentration,[3]; Day 3,118.06 ppm
same,Anacardic Acid 15:3 Composition (%),[3]; Day 3,32.67%
same,Anacardic Acid 15:3 concentration,[3]; Day 3,284.18 ppm
same,Cardanol 15:1 Composition (%),[3]; Day 3,5.88%
same,Cardanol 15:1 concentration,[3]; Day 3,51.13 ppm
same,Cardanol 15:2 Composition (%),[3]; Day 3,2.51%
same,Cardanol 15:2 concentration,[3]; Day 3,21.87 ppm
same,Cardanol 15:3 Composition (%),[3]; Day 3,5.62%
same,Cardanol 15:3 concentration,[3]; Day 3,48.85 ppm
